This is an account of results in patent US7572814B2, “3,5-dibenzoyl-4-phenyl-piperidine anti-cancer compounds” (Cytokinetics, Incorporated, priority 2005, dated 2009).

Assay [1] relates to SKOV-3 human ovarian carcinoma. Put plainly: Tumor growth delay (TGD) study, established SKOV-3 tumors in athymic nude mice. The format is in vivo. To be noted: 30 mg/kg i.v. qod×5.
Procedure: Certain of the chemical entities described herein were evaluated for in vivo activity against SKOV-3 human ovarian carcinoma in a tumor growth delay (TGD) study. The study utilized eight groups (n=8) of athymic nude mice bearing established (63-144 mm3) SKOV-3 tumors on Day 1, and included a vehicle-treated tumor growth control group and a reference group treated with paclitaxel (30 mg/kg i.v. qod×5). A first chemical entity was evaluated at doses of 300 or 150 mg/kg administered intraperitoneally (i.p.) once daily and at 150 mg/kg administered i.p. twice daily. Doses were administered on study days 1 to 5 and 8 to 12. Tumors were measured twice weekly during the 60-day study. Each animal was euthanized when its tumor reached the endpoint volume of 1500 mm3 or on Day 60, whichever came first, and the time to endpoint (TTE) was calculated for each mouse. Treatment outcome was determined from percent tumor growth delay (% TGD), defined as the percent increase in median TTE of treated versus control mice, with differences in TTE values deemed significant at P □0.05 using logrank analysis. The results presented were calculated based on data acquired through day 33 of the study. The median TTE of the untreated control group was 20.8 days.
A second chemical entity was similarly evaluated at 500 mg/kg administered i.p. once daily.
A further assay deals with A549 cells. As to conditions: data provided by National Cancer Institute; cited from earlier work.

As to `CC(=O)O[C@H]1C(=O)[C@@]2(C)[C@H]([C@H](OC(=O)c3ccccc3)[C@]3(O)C[C@H](OC(=O)[C@H](O)[C@@H](NC(=O)c4ccccc4)c4ccccc4)C(C)=C1C3(C)C)[C@]1(OC(C)=O)CO[C@@H]1C[C@@H]2O` [paclitaxel], in assay [1] (data through day 33, statistically significant), the “percent tumor growth delay (% TGD)” value is reported as 58%. Further, in assay [1] (maximum possible in this study, untreated control median TTE 20.8 days), the “tumor growth delay (T-C)” value worked out at 12.2 days. Further, the concentration for 50% growth inhibition (GI50) in the assay on A549 cells is 4 nM.

`COc1cccc2c1C(=O)c1c(O)c3c(c(O)c1C2=O)C[C@@](O)(C(=O)CO)C[C@@H]3O[C@H]1C[C@H](N)[C@H](O)[C@H](C)O1` [doxorubicin]: the GI50 in the assay on A549 cells is 63 nM.

As for `O=c1[nH]cc(F)c(=O)[nH]1` [5-fluorouracil], in the assay on A549 cells, the concentration for 50% growth inhibition (GI50) is 1000 nM.

With `NC(=O)NO` [hydroxyurea], the GI50 in the assay with A549 cells is 500000 nM.
